The target of experiment [1] is T1, human B1R receptor (hB1R) (Homo sapiens, UniProt P46663).
T1 construct: host or cells: CHO K1 cells
T1 sequence (P46663 1-353): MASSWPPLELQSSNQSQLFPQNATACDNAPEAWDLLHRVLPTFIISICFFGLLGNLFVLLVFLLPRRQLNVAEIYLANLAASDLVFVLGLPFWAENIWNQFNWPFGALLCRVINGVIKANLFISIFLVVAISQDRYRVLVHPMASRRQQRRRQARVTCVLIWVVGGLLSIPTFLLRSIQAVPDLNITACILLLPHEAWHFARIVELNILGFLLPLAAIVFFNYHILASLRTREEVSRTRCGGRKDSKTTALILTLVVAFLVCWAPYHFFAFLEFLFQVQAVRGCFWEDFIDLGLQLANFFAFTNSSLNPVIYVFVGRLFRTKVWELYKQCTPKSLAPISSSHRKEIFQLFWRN
Description: FLIPR Ca2+ assay on hB1R-transfected CHO K1 cells, antagonistic action. The format is cell-based.

For experiment [2], the target named is T2, B1R receptor of the rat (rB1R) (Rattus norvegicus, UniProt P97583).
T2 construct: host or cells: CHO K1 cells
T2 sequence (P97583 1-337): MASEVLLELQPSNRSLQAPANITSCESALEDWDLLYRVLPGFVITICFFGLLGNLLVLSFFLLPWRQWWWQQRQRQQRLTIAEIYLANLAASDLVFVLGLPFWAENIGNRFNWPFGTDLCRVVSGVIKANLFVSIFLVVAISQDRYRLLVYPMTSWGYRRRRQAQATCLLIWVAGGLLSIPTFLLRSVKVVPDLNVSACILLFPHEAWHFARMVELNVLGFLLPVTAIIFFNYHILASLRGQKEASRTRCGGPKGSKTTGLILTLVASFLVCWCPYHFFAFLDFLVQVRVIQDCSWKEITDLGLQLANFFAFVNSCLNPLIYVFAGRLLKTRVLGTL
Description: FLIPR Ca2+ assay on rB1R-transfected CHO K1 cells, antagonistic action. In kind it is cell-based.

The mark [3] stands for this setting: CHO-K1, 10 μM test substance, agonist Lys-Des-Arg9-bradykinin 0.5 nM, % of maximum achievable inhibition, read-out: hB1R [10 μM] % inhibition.
[4] abbreviates: CHO-K1, 10 μM test substance, agonist Des-Arg9-bradykinin 100 nM, % of maximum achievable inhibition, read-out: rB1R [10 μM] % inhibition.

Where two headings read alike, the source gives them in different places.

Usually inhibition stands for the relative decrease from the control value, in per cent.

With `COc1cc(C)c(S(=O)(=O)N(C)CCOCC(=O)NC2CCC(c3cccc(F)c3)(N(C)C)CC2)c(C)c1` (stereo not drawn) [Compound 6, N-(4-(dimethylamino)-4-(3-fluorophenyl)cyclohexyl)-2-(2-(4-methoxy-N,2,6-trimethylphenylsulfonamido)ethoxy)acetamide], the inhibition at 10 µM in experiment [1] (setting [3]) and in experiment [2] (setting [4]) was 100% throughout.

On to `COc1cc(C)c(S(=O)(=O)N2CCCCC2COCC(=O)N(C)CCCC2CCC(c3ccccc3)(N(C)C)CC2)c(C)c1` (stereo not drawn) [Compound 203, N-(3-(4-(dimethylamino)-4-phenylcyclohexyl)propyl)-2-((1-(4-methoxy-2,6-dimethylphenylsulfonyl)piperidin-2-yl)methoxy)-N-methylacetamide], for which the inhibition at 10 µM came to 99% in experiment [1] (setting [3]) and 98% in experiment [2] (setting [4]).

As to `COc1cc(C)c(S(=O)(=O)N(C)CCOCC(=O)N2CCC(c3ccccc3)(N3CCN(C)CC3)CC2)c(C)c1` [Compound 41, 4-methoxy-N,2,6-trimethyl-N-(2-(2-(4-(4-methylpiperazin-1-yl)-4-phenylpiperidin-1-yl)-2-oxoethoxy)ethyl)benzenesulfonamide], the inhibition at 10 µM in experiment [1] (setting [3]) turned out to be 103%; in experiment [2] (setting [4]), 101%.

With `CN1CCN(C2(Cc3ccccc3)CCC(CN(C)C(=O)COCCN(C)S(=O)(=O)c3c(Cl)cc(Cl)cc3Cl)CC2)CC1` (stereo not drawn) [Compound 186, N-((4-benzyl-4-(4-methylpiperazin-1-yl)cyclohexyl)methyl)-N-methyl-2-(2-(2,4,6-trichloro-N-methylphenylsulfonamido)ethoxy)acetamide], the inhibition at 10 µM in experiment [1] (setting [3]) turned out to be 97%; in experiment [2] (setting [4]) it was 64%.

For `COc1cc(C)c(S(=O)(=O)N2CCCCC2COCC(=O)N(C)CC2CCC(Cc3ccccc3)(N3CCN(C)CC3)CC2)c(C)c1` (stereo not drawn) [Compound 143, N-((4-benzyl-4-(4-methylpiperazin-1-yl)cyclohexyl)methyl)-2-((1-(4-methoxy-2,6-dimethylphenylsulfonyl)piperidin-2-yl)methoxy)-N-methylacetamide], the inhibition at 10 µM in experiment [1] (setting [3]) was found to be 103%; in experiment [2] (setting [4]), 111%.

In the case of `COc1cc(C)c(S(=O)(=O)N(C)CCOCC(=O)N(C)CCC2CCC(Cc3ccccc3)(N(C)C)CC2)c(C)c1` (stereo not drawn) [Compound 53, N-(2-(4-benzyl-4-(dimethylamino)cyclohexyl)ethyl)-2-(2-(4-methoxy-N,2,6-trimethylphenylsulfonamido)ethoxy)-N-methylacetamide], the inhibition at 10 µM in experiment [1] (setting [3]) was found to be 103%; in experiment [2] (setting [4]), 100%.

Take `CN1CCN(C2(c3cccc(F)c3)CCN(C(=O)CCCC3CCCCN3S(=O)(=O)c3cccc4ccccc34)CC2)CC1` (stereo not drawn) [Compound 215, 1-(4-(3-Fluorophenyl)-4-(4-methylpiperazin-1-yl)piperidin-1-yl)-4-(1-(naphthalen-1-ylsulfonyl)piperidin-2-yl)butan-1-one]: the inhibition at 10 µM amounted to 100% in experiment [1] (CHO-K1, read-out: hB1R [10 μM] % inhibition) and 100% in experiment [2] (CHO-K1, read-out: rB1R [10 μM] % inhibition).

As for `COc1cc(C)c(S(=O)(=O)N(C)CCOCC(=O)N(C)CCCC2CCC(c3ccccc3)(N3CCCC3)CC2)c(C)c1` (stereo not drawn) [Compound 83, 2-(2-(4-methoxy-N,2,6-trimethylphenylsulfonamido)ethoxy)-N-methyl-N-(3-(4-phenyl-4-(pyrrolidin-1-yl)cyclohexyl)propyl)acetamide], the inhibition at 10 µM in experiment [1] (setting [3]) is 103%; in experiment [2] (setting [4]), 99%.

Turning to `CN1CCN(C2(c3ccc(F)cc3)CCN(C(=O)CC(NS(=O)(=O)c3ccc4ccccc4c3)c3ccccc3)CC2)CC1` (stereo not drawn) [Compound 96, N-(3-(4-(4-fluorophenyl)-4-(4-methylpiperazin-1-yl)piperidin-1-yl)-3-oxo-1-phenylpropyl)naphthalene-2-sulfonamide], the inhibition at 10 µM in experiment [1] (setting [3]) was 100%; in experiment [2] (setting [4]) it was 91%.

`COc1cc(C)c(S(=O)(=O)N(C)CCOCC(=O)N(C)CC2CCC(Cc3ccccc3)(N3CCCC3)CC2)c(C)c1` (stereo not drawn) [Compound 45, N-((4-benzyl-4-(pyrrolidin-1-yl)cyclohexyl)methyl)-2-(2-(4-methoxy-N,2,6-trimethylphenylsulfonamido)ethoxy)-N-methylacetamide]: the inhibition at 10 µM was found to be 104% in experiment [1] (setting [3]) and 100% in experiment [2] (setting [4]).

Turning to `CN1CCN(C2(c3cccc(F)c3)CCN(C(=O)CCCC3CCCCN3S(=O)(=O)c3ccc4ccccc4c3)CC2)CC1` (stereo not drawn) [Compound 216, 1-(4-(3-Fluorophenyl)-4-(4-methylpiperazin-1-yl)piperidin-1-yl)-4-(1-(naphthalen-2-ylsulfonyl)piperidin-2-yl)butan-1-one], the inhibition at 10 µM in experiment [1] (setting [3]) came out at 100%; in experiment [2] (setting [4]), 95%.

Take `CN(C)C1(CCc2ccccc2)CCN(C(=O)CC(NS(=O)(=O)c2ccc3ccccc3c2)c2ccccc2)CC1` (stereo not drawn) [Compound 105, N-(3-(4-(dimethylamino)-4-phenethylpiperidin-1-yl)-3-oxo-1-phenylpropyl)naphthalene-2-sulfonamide]: the inhibition at 10 µM in experiment [1] (setting [3]) amounted to 83%; in experiment [2] (setting [4]), 81%.

`Cc1cccc(Cl)c1S(=O)(=O)N1CCCCC1CCCC(=O)N1CCC(c2cccc(F)c2)(N2CCN(C)CC2)CC1` (stereo not drawn) [Compound 212, 4-(1-(2-Chloro-6-methylphenylsulfonyl)piperidin-2-yl)-1-(4-(3-fluorophenyl)-4-(4-methylpiperazin-1-yl)piperidin-1-yl)butan-1-one]: the inhibition at 10 µM in experiment [1] (setting [3]) and in experiment [2] (setting [4]) was 100% throughout.

With `Cc1cc(S(=O)(=O)N2CCCCC2CCC(=O)N2CCC(c3ccccc3)(N(C)C)CC2)c(C)cc1Cl` (stereo not drawn) [Compound 123, 3-(1-(4-chloro-2,5-dimethylphenylsulfonyl)piperidin-2-yl)-1-(4-(dimethylamino)-4-phenylpiperidin-1-yl)propan-1-one], the inhibition at 10 µM in experiment [1] (setting [3]) came out at 103%; in experiment [2] (setting [4]), 60%.

Consider `O=C(COCC1CCCCN1S(=O)(=O)c1c(Cl)cc(Cl)cc1Cl)NC1CCC(Cc2ccccc2)(N2CCCC2)CC1` (stereo not drawn) [Compound 163, N-(4-benzyl-4-(pyrrolidin-1-yl)cyclohexyl)-2-((1-(2,4,6-trichlorophenylsulfonyl)piperidin-2-yl)methoxy)acetamide], for which the values for the inhibition at 10 µM in experiment [1] (setting [3]) and in experiment [2] (setting [4]) were 84% and 93%, respectively.

Turning to `CN1CCN(C2(CCc3ccccc3)CCC(CN(C)C(=O)COCC3CCCN3S(=O)(=O)c3c(Cl)cc(Cl)cc3Cl)CC2)CC1` (stereo not drawn) [Compound 172, N-methyl-N-((4-(4-methylpiperazin-1-yl)-4-phenethylcyclohexyl)methyl)-2-((1-(2,4,6-trichlorophenylsulfonyl)pyrrolidin-2-yl)methoxy)acetamide], the inhibition at 10 µM in experiment [1] (setting [3]) was 98%; in experiment [2] (setting [4]) it was 79%.

Consider `CN(C)C1(CCc2ccccc2)CCN(C(=O)CC2CCCCN2S(=O)(=O)c2cccc(C(F)(F)F)c2)CC1` (stereo not drawn) [Compound 71, 1-(4-(dimethylamino)-4-phenethylpiperidin-1-yl)-2-(1-(3-(trifluoromethyl)phenylsulfonyl)piperidin-2-yl)ethanone], for which the inhibition at 10 µM in experiment [1] (setting [3]) was determined as 92%; in experiment [2] (setting [4]) it was 99%.

For `COc1cc(C)c(S(=O)(=O)N2CCCCC2COCC(=O)N2CCC(c3ccccc3)(N(C)C)CC2)c(C)c1` (stereo not drawn) [Compound 202, 1-(4-(dimethylamino)-4-phenylpiperidin-1-yl)-2-((1-(4-methoxy-2,6-dimethylphenylsulfonyl)piperidin-2-yl)methoxy)ethanone], the inhibition at 10 µM in experiment [1] (setting [3]) is 100%; in experiment [2] (setting [4]), 103%.

As for `CN(CC1CCC(Cc2ccccc2)(N2CCCC2)CC1)C(=O)CC1CCCCN1S(=O)(=O)c1cccc(C(F)(F)F)c1` (stereo not drawn) [Compound 94, N-((4-benzyl-4-(pyrrolidin-1-yl)cyclohexyl)methyl)-N-methyl-2-(1-(3-(trifluoromethyl)phenylsulfonyl)piperidin-2-yl)acetamide], the inhibition at 10 µM in experiment [1] (setting [3]) stood at 64%; in experiment [2] (setting [4]) it was 93%.

Consider `CN(CCC1CCC(Cc2ccccc2)(N(C)C)CC1)C(=O)CC(NS(=O)(=O)c1ccc2ccccc2c1)c1ccccc1` (stereo not drawn) [Compound 86, N-(2-(4-benzyl-4-(dimethylamino)cyclohexyl)ethyl)-N-methyl-3-(naphthalene-2-sulfonamido)-3-phenylpropanamide], for which the inhibition at 10 µM in experiment [1] (setting [3]) turned out to be 101%; in experiment [2] (setting [4]) it was 99%.

With `COc1cc(C)c(S(=O)(=O)N2CCCCC2COCC(=O)N2CCC(c3cccc(F)c3)(N3CCN(C)CC3)CC2)c(C)c1` (stereo not drawn) [Compound 67, 1-(4-(3-fluorophenyl)-4-(4-methylpiperazin-1-yl)piperidin-1-yl)-2-((1-(4-methoxy-2,6-dimethylphenylsulfonyl)piperidin-2-yl)methoxy)ethanone], the “hB1R [10 μM] % inhibition” value in experiment [1] (10 μM test substance, agonist Lys-Des-Arg9-bradykinin 0.5 nM, % of maximum achievable inhibition) is reported as 101%. Moreover, the “rB1R [10 μM] % inhibition” value in experiment [2] (10 μM test substance, agonist Des-Arg9-bradykinin 100 nM, % of maximum achievable inhibition) was found to be 100%.

The values are drawn from patent US20090253669A1, “Substituted Sulfonamide Compounds” (GRUENENTHAL GmbH, priority 2008, published 2009).
